# Where two headings read alike, the source gives them in different places.
# How the values were obtained:
# [1] = tested on: AF patients; conditions: SPORTIF III (2003), cited from earlier work
# [2] = tested on: AF patients; conditions: SPORTIF V (2005), cited from earlier work
# [3] = tested on: patients who have nonvalvular atrial fibrillation; conditions: VKAs, such as warfarin; cited from earlier work
# [4] = tested on: patients with atrial fibrillation at risk of stroke
# Source text: Median follow-up was 2.0 years and the primary outcome was stroke or systemic embolism.
# Patients were recruited from 951 clinical centers in 44 countries. In brief, patients were eligible if they had atrial fibrillation documented on electrocardiogram at screening or within 6 months; and at least one of the following: prior stroke or transient ischemic attack; left ventricular ejection fraction less than 40%; New York Heart Association heart failure symptoms of Class 2 or greater within 6 months; age at least 75 years; or age at least 65 years with diabetes mellitus, hypertension or coronary artery disease.
# The time in therapeutic range was calculated by the method of Rosendaal (Rosendaal F R, et al., A method to determine the optimal intensity of oral anticoagulant therapy, Thromb Haemost, 1993, 69:236-239), excluding INRs from the first week and after discontinuations. […] Concomitant use of aspirin (less than 100 mg/day) or other antiplatelet agents was allowed.
# Liver function testing was performed monthly during the first year of follow-up.
# The primary study outcome was stroke or systemic embolism. The primary safety outcome was major hemorrhage. Secondary outcomes were stroke, systemic embolism and death. Other outcomes were myocardial infarction, pulmonary embolism, transient ischemic attacks, and hospitalizations. The primary net benefit-risk outcome was the composite of stroke, systemic embolism, pulmonary embolism, myocardial infarction, death or major hemorrhage. Stroke was defined as sudden onset of focal neurological deficit consistent with the territory of a major cerebral artery and categorized as ischemic, hemorrhagic or unspecified. Hemorrhagic transformation of ischemic stroke was not considered as hemorrhagic stroke. Intracranial hemorrhage included hemorrhagic stroke and sub-dural or sub-arachnoid hemorrhage. Systemic embolism was an acute vascular occlusion of an extremity or organ documented by imaging, surgery or autopsy. Major bleeding was defined as a reduction in hemoglobin level of at least […] or transfusion of at least 2 units of blood or symptomatic bleeding in a critical area or organ. Life-threatening bleeding was a subset of major bleeding that included fatal bleeding, symptomatic intracranial bleeding, bleeding with hemoglobin decrease of more than […] or requiring transfusion of more than 4 units of blood or requiring inotropic agents or necessitating surgery. All other bleeding was considered minor.
# All primary and secondary outcome events were blindly and doubly adjudicated. An international team of adjudicators reviewed documents in local languages after blinding; or documents were translated by a independent group and blinded centrally. All transient ischemic attacks were reviewed to ensure that strokes had not been missed. To detect possible unreported events, symptom questionnaires were regularly administered to patients, and adverse events and hospitalization reports were scrutinized for unreported primary or secondary outcomes.
# If maximum of the two p-values was greater than 0.025, the minimum of the two p-values must be less than 0.0125, one-sided, to claim statistical significance. All analyses were based on intention-to-treat.
# [5] = tested on: AF patients; conditions: ACTIVE W (2006), warfarin arm; cited from earlier work
# [6] = ximelagatran 36 mg b.i.d. vs. warfarin
structure (smiles),measurement,setting,value
"CC(=O)CC(c1ccccc1)c1c(O)c2ccccc2oc1=O (racemic) [Warfarin, 3-(α-acetonylbenzyl)4-hydroxycoumarin, reference compound]",Stroke and systemic embolism (per 100 patient years),[1]; [6],2.3%
same,Myocardial Infarction,[1]; ximelagatran vs. warfarin,0.6%
same,Stroke and systemic embolism (per 100 patient years),[2]; [6],1.2%
same,Myocardial Infarction,[2]; ximelagatran vs. warfarin,1.4%
same,Reduction of the risk of stroke compared to control,[3],64%
same,ALT or AST > 3xULN,[4]; Warfarin arm,(2.1) %
same,ALT or AST > 3xULN with concurrent bilirubin > 2xULN,[4]; Warfarin arm,(0.4) %
same,Adverse Event: Arthralgia,[4]; Warfarin arm,(5.5) %
same,Adverse Event: Atrial fibrillation,[4]; Warfarin arm,(5.4) %
same,Adverse Event: Back pain,[4]; Warfarin arm,(5.5) %
same,Adverse Event: Chest pain,[4]; Warfarin arm,(5.7) %
same,Adverse Event: Cough,[4]; Warfarin arm,(5.8) %
same,Adverse Event: Diarrhea,[4]; Warfarin arm,(5.5) %
same,Adverse Event: Dizziness,[4]; Warfarin arm,(9.3) %
same,Adverse Event: Dyspepsia,[4]; Warfarin arm,(1.4) %
same,Adverse Event: Dyspnoea,[4]; Warfarin arm,(9.2) %
same,Adverse Event: Fatigue,[4]; Warfarin arm,(5.9) %
same,Adverse Event: Nasopharyngitis,[4]; Warfarin arm,(5.5) %
same,Adverse Event: Peripheral edema,[4]; Warfarin arm,(7.6) %
same,Adverse Event: Upper respiratory tract infection,[4]; Warfarin arm,(5.0) %
same,Adverse Event: Urinary tract infection,[4]; Warfarin arm,(5.3) %
same,"All Death, Rate",[4]; Warfarin arm,4.13 /100 Person Years
same,"Any Major Bleeding, Rate",[4]; Warfarin arm,3.46 /100 Person Years
same,"Extracranial Bleeding, Rate",[4]; Warfarin arm,2.73 /100 Person Years
same,"First Hospitalization, Rate",[4]; Warfarin arm,27.5 /100 Person Years
same,"Intracranial Bleeding, Rate",[4]; Warfarin arm,0.72 /100 Person Years
same,"Life threatening bleeding, Rate",[4]; Warfarin arm,1.80 /100 Person Years
same,"Major gastro-intestinal Bleeding, Rate",[4]; Warfarin arm,1.03 /100 Person Years
same,"Major or Minor Bleeding, Rate",[4]; Warfarin arm,23.92 /100 Person Years
same,"Minor Bleeding, Rate",[4]; Warfarin arm,21.03 /100 Person Years
same,"Myocardial Infarction, Rate",[4]; Warfarin arm,0.54 /100 Person Years
same,"Non-disabling Stroke Modified Rankin 0-2, Rate",[4]; Warfarin arm,0.58 /100 Person Years
same,"Other Major bleeding, Rate",[4]; Warfarin arm,1.80 /100 Person Years
same,"Pulmonary embolism, Rate",[4]; Warfarin arm,0.09 /100 Person Years
same,Reason for discontinuation: Gastrointestinal bleeding,[4]; Warfarin arm,(0.9) %
same,Reason for discontinuation: Gastrointestinal disorders,[4]; Warfarin arm,(0.8) %
same,Reason for discontinuation: Outcome event,[4]; Warfarin arm,(2.2) %
same,Reason for discontinuation: Patient decision,[4]; Warfarin arm,(6.2) %
same,Reason for discontinuation: SAE,[4]; Warfarin arm,(1.6) %
same,"Stroke or systemic embolism, Rate",[4]; Warfarin arm,1.70 /100 Person Years
same,"Stroke, Hemorrhagic, Rate",[4]; Warfarin arm,0.38 /100 Person Years
same,"Stroke, Rate",[4]; Warfarin arm,1.58 /100 Person Years
same,Study Drug Discontinuation At one year,[4]; Warfarin arm,(10) %
same,Study Drug Discontinuation At two years,[4]; Warfarin arm,(19) %
same,"Vascular Death, Rate",[4]; Warfarin arm,2.69 /100 Person Years
same,hepatobiliary disorders (AE),[4]; Warfarin arm,(2.2) %
same,hepatobiliary disorders (SAE),[4]; Warfarin arm,(0.4) %
same,Study Drug Discontinuation At one year,"[4]; Warfarin arm, listed as warfarin",10%
same,"Stroke, systemic embolism, pulmonary embolism, myocardial infarction death or major bleed, Rate","[4]; net benefit, Warfarin arm",7.99 /100 Person Years
same,"Mortality rate, death from any cause",[4]; warfarin,4.13 % per year
same,Rate of discontinuation at 2.5 years,[4]; warfarin,19%
same,Rate of hemorrhagic stroke,[4]; warfarin,0.38 % per year
same,Rate of major hemorrhage / major bleeding,[4]; warfarin,3.46 % per year
same,Rate of myocardial infarction,[4]; warfarin,0.54 % per year
same,"Rate of net benefit-risk outcome (major vascular events, major bleeding and death)",[4]; warfarin,7.99 % per year
same,"Rate of the primary outcome, stroke or systemic embolism",[4]; warfarin,1.70 % per year
same,Myocardial Infarction,[5],0.6%
same,Stroke and systemic embolism (per 100 patient years),[5],1.5%
